Measured values reported in patent publication US10517867B2, “Posaconazole derivative, pharmaceutical composition and use thereof” (priority 2016, dated 2019).
Like-named read-outs stand apart in the source and are kept apart here.

Tests used:
[1] = In vitro metabolic stability in human plasma; assay type: in vitro ADME; conditions: 37° C., 10 μM compound, metabolic half-life
In short: (§1)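 Human or rat plasma, preincubated 5 min at 37 °C, or intestinal S9 at 37 °C, spiked from 1 mM stock; triplicates sampled at 1, 2, 5, 15 and 30 min into cold internal standard. HPLC quantitation; half-life by non-compartmental analysis.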

[2] = In vitro metabolic stability in human intestine S9; assay type: in vitro ADME; conditions: 37° C., 10 μM compound, 1 mg/mL S9, NADPH regeneration system
In short: as §1

[3] = In vitro metabolic stability in rat plasma; assay type: in vitro ADME; conditions: 37° C., 10 μM compound, metabolic half-life
In short: as §1

[4] = In vitro metabolic stability in rat intestine S9; assay type: in vitro ADME; conditions: 37° C., 10 μM compound, 1 mg/mL S9, NADPH regeneration system
In short: as §1

[5] = Solid stability test (stability chamber, HPLC total impurity); assay type: physicochemical; conditions: solid, packaged, 25° C.±2° C., relative humidity 60%±2%
[6] = Pharmacokinetics after single intragastric administration to rats; assay type: in vivo, SD rats; conditions: plasma posaconazole, 2.5 mg/kg (calculated as posaconazole)
Description: Administration amount: 2.5 mg/kg (calculated as posaconazole)
Administration volume: 10 ml/kg
Drug concentration: 0.25 mg/mL
Administration vehicle: the positive drug posaconazole group used CMC—Na, while other groups used normal saline (physiological saline)
Administration route: intragastric administration
Experimental animals: SD rats, SPF grade, weighing 180-220 g, equal amount of male and female. Rats were randomly divided into groups of 6 with 3 males and 3 females.
Experimental protocol: after oral intragastric administration, blood samples were collected at different time points to determine the concentration of posaconazole in the plasma and the pharmacokinetic parameters of posaconazole were obtained.

[7] = test system: Candida albicans ATCC10231; experiment: Systemic fungal infection in mice, intragastric administration; assay type: in vivo, ICR mice; conditions: for responders at 20 mg/kg: Candida albicans, ATCC10231, po
[8] = Determination of solubility in deionized water (HPLC, external standard); conditions: for Solubility: 25±2° C., after 30 min; for solubility at 30 min: 25 °C, water, thermodynamic from solid
[9] = test system: Candida albicans ATCC10231; experiment: Candida albicans vaginitis in mice, intragastric administration; assay type: in vivo, KM mice; conditions: logarithm of the CFU values, mean ± SD of 20 mice, 20 mg/kg intragastric once a day
[10] = test system: Candida albicans ATCC10231; experiment: Systemic fungal infection in mice, intravenous administration; assay type: in vivo, ICR mice
[11] = test system: Candida albicans ATCC10231; experiment: Candida albicans vaginitis in mice, intravenous administration; conditions: logarithm of the CFU values, mean ± SD of 20 mice; for vaginal fungal load of mice, day 5: 20 mg/kg tail vein once a day for 5 days, day 5 after infection; for vaginal fungal load of mice, day 3: 20 mg/kg tail vein once a day, day 3 after infection
Description: KM mice, weighing 18-22 g, female, provided by Hubei Experimental Animal Center.
The standard strain of Candida albicans was purchased from the American Type Culture
Collection, strain number ATCC10231.
Prior to being infected with Candida albicans, animals in each group were given subcutaneous injections of 0.5 ml of estradiol benzoate (2 mg/ml) for 6 consecutive days to allow them to enter the estrus phase. Injections were continued once every 2 days until the completion of the experiment. After 6 days, 20 μl of Candida albicans solution in a concentration of 3.5×10^6 CFU/ml was injected vaginally into each mouse, causing a vaginal infection model. From the first day after infection, each group of animals was given 20 mg/kg of the corresponding drug (calculated as posaconazole) in the tail vein at an administration volume of 0.1 ml/10 g once a day for 5 consecutive days. The model group was given an equal volume of solvent (physiological saline). On the 3rd and 5th days after infection, the vagina of mice were wiped with sterile cotton swabs. The cotton swabs were soaked in 0.9 ml physiological saline. The fungal solutions were diluted to 10-fold increments to give a series of concentrations, and then 100 μl of each concentration of the bacteria solutions was taken and inoculated on Sabourand's dextrose agar solid medium containing 0.5% (W/V) chloramphenicol to observe the fungal load of Candida albicans on the vagina.

[12] = test system: Aspergillus Fumigutus (AF) strains; experiment: Aspergillus fumigatus keratitis in rats, intravenous administration; conditions: 10 mg/kg tail vein once daily for 5 days; mean ± SD of 10 rats
[13] = test system: Aspergillus fumigatus AF293; experiment: Lung Aspergillus fumigatus infection in immunosuppressed mice, intravenous administration; conditions: for responders at 20 mg/kg: Aspergillus fumigatus, AF293, in Mus musculus, iv; for lung fungal load: mouse lung tissue, seven days later, 20 mg/kg tail vein once daily for 5 days, mean ± SD
[14] = 24 h, read-out: survival rate of mice, day 1
[15] = 48 h, read-out: survival rate of mice, day 2
[16] = 72 h, read-out: survival rate of mice, day 3
[17] = 96 h, read-out: survival rate of mice, day 4
[18] = 120 h, read-out: survival rate of mice, day 5
[19] = 144 h, read-out: survival rate of mice, day 6
[20] = 168 h, read-out: survival rate of mice, day 7
[21] = 24 h, read-out: survival rate of mice, day 1, 20 mg/kg intragastric once daily for 5 days, day 1
[22] = 48 h, read-out: survival rate of mice, day 2, 20 mg/kg intragastric once daily for 5 days, day 2
[23] = 72 h, read-out: survival rate of mice, day 3, 20 mg/kg intragastric once daily for 5 days, day 3
[24] = 96 h, read-out: survival rate of mice, day 4, 20 mg/kg intragastric once daily for 5 days, day 4
[25] = 120 h, read-out: survival rate of mice, day 5, 20 mg/kg intragastric once daily for 5 days, day 5
[26] = 144 h, read-out: survival rate of mice, day 6, 20 mg/kg intragastric once daily for 5 days, day 6
[27] = 168 h, read-out: survival rate of mice, day 7, 20 mg/kg intragastric once daily for 5 days, day 7
[28] = 24 h, read-out: survival rate of mice, day 1, 20 mg/kg tail vein once daily for 5 days, day 1
[29] = 48 h, read-out: survival rate of mice, day 2, 20 mg/kg tail vein once daily for 5 days, day 2
[30] = 72 h, read-out: survival rate of mice, day 3, 20 mg/kg tail vein once daily for 5 days, day 3
[31] = 96 h, read-out: survival rate of mice, day 4, 20 mg/kg tail vein once daily for 5 days, day 4
[32] = 120 h, read-out: survival rate of mice, day 5, 20 mg/kg tail vein once daily for 5 days, day 5
[33] = 144 h, read-out: survival rate of mice, day 6, 20 mg/kg tail vein once daily for 5 days, day 6
[34] = 168 h, read-out: survival rate of mice, day 7, 20 mg/kg tail vein once daily for 5 days, day 7

| Compound | Total impurity increment in 30 days [5] [%] | AUClast [6] [µg·h/mL] | Cmax [6] [µg/mL] | T1/2 [6] [min] | Solubility [8] [mg/mL] | responders at 20 mg/kg [7, 21] [%] | responders at 20 mg/kg [7, 22] [%] | responders at 20 mg/kg [7, 23] [%] | responders at 20 mg/kg [7, 24] [%] | responders at 20 mg/kg [7, 25] [%] | responders at 20 mg/kg [7, 26] [%] | responders at 20 mg/kg [7, 27] [%] | Amount of active fungi in cornea at day 7 [12] | responders at 20 mg/kg [13, 28] [%] | responders at 20 mg/kg [13, 29] [%] | responders at 20 mg/kg [13, 30] [%] | responders at 20 mg/kg [13, 31] [%] | responders at 20 mg/kg [13, 32] [%] | responders at 20 mg/kg [13, 33] [%] | responders at 20 mg/kg [13, 34] [%] | also measured |
| --- | --- | --- | --- | --- | --- | --- | --- | --- | --- | --- | --- | --- | --- | --- | --- | --- | --- | --- | --- | --- | --- |
| CCC(O[C@@H](C)[C@H](CC)n1ncn(-c2ccc(N3CCN(c4ccc(OC[C@@H]5CO[C@@](Cn6cncn6)(c6ccc(F)cc6F)C5)cc4)CC3)cc2)c1=O)OP(=O)([O-])[O-].[Na+].[Na+] (some centres unmarked) [ST0093] | 0.91 | 3.056 ± 1.265 | 0.125 ± 0.058 | 746.4 ± 128 | 27.9 | – | – | – | – | – | – | – | – | – | – | – | – | – | – | – | Human plasma T1/2 [1]: 18.95 ± 2.76 min; Human intestine S9 T1/2 [2]: 61.98 ± 14.26 min; Rat plasma T1/2 [3]: 15.69 ± 4.88 min; Rat intestine S9 T1/2 [4]: 57.25 ± 12.56 min; survival rate of mice, day 1 ([7]; 20 mg/kg intragastric once daily for 5 days, day 1): 70%; survival rate of mice, day 2 ([7]; 20 mg/kg intragastric once daily for 5 days, day 2): 70%; survival rate of mice, day 3 ([7]; 20 mg/kg intragastric once daily for 5 days, day 3): 60%; survival rate of mice, day 4 ([7]; 20 mg/kg intragastric once daily for 5 days, day 4): 60%; survival rate of mice, day 5 ([7]; 20 mg/kg intragastric once daily for 5 days, day 5): 60%; survival rate of mice, day 6 ([7]; 20 mg/kg intragastric once daily for 5 days, day 6): 60%; survival rate of mice, day 7 ([7]; 20 mg/kg intragastric once daily for 5 days, day 7): 60% |
| CC[C@@H]([C@H](C)O)n1ncn(-c2ccc(N3CCN(c4ccc(OC[C@@H]5CO[C@@](Cn6c[n+](C(C)OC(=O)N(C)c7ncccc7COC(=O)[C@@H](N)CCCNC(N)=O)cn6)(c6ccc(F)cc6F)C5)cc4)CC3)cc2)c1=O (some centres unmarked) [ST0012] | – | – | – | – | – | 100 | 100 | 100 | 80 | 80 | 80 | 80 | 1.45 ± 0.37 10^3 CFU/ml | 100 | 100 | 100 | 100 | 100 | 90 | 90 | vaginal fungal load of mice, day 3 [9]: 4.17 ± 0.43; vaginal fungal load of mice, day 5 [9]: 4.12 ± 0.35; vaginal fungal load of mice, day 7 [9]: 3.10 ± 0.34; vaginal fungal load of mice, day 11 [9]: 2.42 ± 0.19; responders at 20 mg/kg [10, 14]: 100%; responders at 20 mg/kg [10, 15]: 100%; responders at 20 mg/kg [10, 16]: 100%; responders at 20 mg/kg [10, 17]: 100%; responders at 20 mg/kg [10, 18]: 100%; responders at 20 mg/kg [10, 19]: 100%; responders at 20 mg/kg [10, 20]: 90%; vaginal fungal load of mice, day 5 [11]: 3.75 ± 0.26; vaginal fungal load of mice, day 3 [11]: 4.01 ± 0.28; solubility at 30 min [8]: > 50 mg/mL; lung fungal load [13]: 1.42 ± 0.30 10^4 CFU/ml |
| CC[C@@H]([C@H](C)O)n1ncn(-c2ccc(N3CCN(c4ccc(OC[C@@H]5CO[C@@](Cn6c[n+](C(C)OC(=O)N(C)c7ncccc7COC(=O)[C@@H](N)CCCN)cn6)(c6ccc(F)cc6F)C5)cc4)CC3)cc2)c1=O (some centres unmarked) [ST0003] | 0.68 | – | – | – | >50 | 100 | 100 | 100 | 90 | 80 | 80 | 80 | 1.48 ± 0.38 10^3 CFU/ml | 100 | 100 | 100 | 100 | 100 | 90 | 90 | vaginal fungal load of mice, day 3 ([9]; 20 mg/kg): 4.23 ± 0.41; vaginal fungal load of mice, day 5 ([9]; 20 mg/kg): 4.05 ± 0.37; vaginal fungal load of mice, day 7 ([9]; 20 mg/kg): 3.28 ± 0.36; vaginal fungal load of mice, day 11 ([9]; 20 mg/kg): 2.47 ± 0.18; responders at 20 mg/kg [10, 14]: 100%; responders at 20 mg/kg [10, 15]: 100%; responders at 20 mg/kg [10, 16]: 100%; responders at 20 mg/kg [10, 17]: 100%; responders at 20 mg/kg [10, 18]: 100%; responders at 20 mg/kg [10, 19]: 100%; responders at 20 mg/kg [10, 20]: 90%; vaginal fungal load of mice, day 5 ([11]; 20 mg/kg): 3.85 ± 0.28; vaginal fungal load of mice, day 3 ([11]; 20 mg/kg): 4.11 ± 0.30; lung fungal load ([13]; 20 mg/kg): 1.39 ± 0.32 10^4 CFU/ml |
| CC[C@@H]([C@H](C)O)n1ncn(-c2ccc(N3CCN(c4ccc(OC[C@@H]5CO[C@@](Cn6c[n+](C(C)OC(=O)N(C)c7ncccc7COC(=O)[C@@H](N)CCN)cn6)(c6ccc(F)cc6F)C5)cc4)CC3)cc2)c1=O (some centres unmarked) [ST0006] | – | – | – | – | – | 100 | 100 | 90 | 80 | 70 | 70 | 70 | 1.92 ± 0.41 10^3 CFU/ml | 100 | 100 | 100 | 100 | 90 | 90 | 80 | vaginal fungal load of mice, day 3 [9]: 4.32 ± 0.29; vaginal fungal load of mice, day 5 [9]: 4.18 ± 0.20; vaginal fungal load of mice, day 7 [9]: 3.49 ± 0.54; vaginal fungal load of mice, day 11 [9]: 2.84 ± 0.37; solubility at 30 min [8]: > 50 mg/mL; lung fungal load [13]: 1.73 ± 0.34 10^4 CFU/ml |
| CC[C@@H]([C@H](C)O)n1ncn(-c2ccc(N3CCN(c4ccc(OC[C@@H]5CO[C@@](Cn6c[n+](C(C)OC(=O)NCC(=O)[O-])cn6)(c6ccc(F)cc6F)C5)cc4)CC3)cc2)c1=O.[Cl-].[Na+] (some centres unmarked) [ST0019] | – | 1.985 ± 0.358 | 0.102 ± 0.026 | 684.6 ± 195 | – | – | – | – | – | – | – | – | – | – | – | – | – | – | – | – | – |
